According to patent publication US9422293B2 (priority 2006, dated 2016):
Counter-ions that a name gives are not always drawn.

What follows are compounds tested against rat TRPV1 (Rattus norvegicus (Rat), UniProt O35433). Conditions: read-out: Rat IC50.
Sequence of rat TRPV1 (O35433 whole entry): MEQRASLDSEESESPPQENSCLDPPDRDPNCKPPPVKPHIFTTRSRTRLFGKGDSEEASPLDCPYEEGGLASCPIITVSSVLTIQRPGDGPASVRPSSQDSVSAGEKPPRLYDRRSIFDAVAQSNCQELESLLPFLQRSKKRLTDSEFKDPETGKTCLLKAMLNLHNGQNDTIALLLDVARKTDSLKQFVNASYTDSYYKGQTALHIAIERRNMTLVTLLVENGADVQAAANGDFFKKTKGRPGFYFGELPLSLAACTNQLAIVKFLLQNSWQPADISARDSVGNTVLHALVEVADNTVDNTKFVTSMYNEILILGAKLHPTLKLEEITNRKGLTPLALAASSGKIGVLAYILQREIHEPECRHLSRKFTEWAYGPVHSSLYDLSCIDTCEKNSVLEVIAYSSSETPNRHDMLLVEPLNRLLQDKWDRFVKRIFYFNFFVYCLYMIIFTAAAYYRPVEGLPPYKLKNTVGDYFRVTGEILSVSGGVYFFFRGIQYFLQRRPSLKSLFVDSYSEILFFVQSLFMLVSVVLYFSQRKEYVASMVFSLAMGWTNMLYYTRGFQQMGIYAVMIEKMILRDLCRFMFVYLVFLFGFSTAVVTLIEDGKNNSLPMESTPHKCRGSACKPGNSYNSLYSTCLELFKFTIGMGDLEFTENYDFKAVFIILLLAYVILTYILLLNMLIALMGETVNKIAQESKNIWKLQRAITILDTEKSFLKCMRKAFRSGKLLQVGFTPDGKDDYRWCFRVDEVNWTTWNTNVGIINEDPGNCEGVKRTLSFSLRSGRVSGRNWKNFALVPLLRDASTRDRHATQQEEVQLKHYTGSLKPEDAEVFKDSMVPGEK

Compound | IC50 [nM]
Cc1ccccc1Nc1nc2c(c(Nc3ccc(C(F)(F)F)cc3)n1)CCN(c1ncccc1C(F)(F)F)CC2 [Example 278, N^2-(2-Methylphenyl)-N^4-[4-(trifluoromethyl)phenyl]-7-[3-(trifluoromethyl)pyridin-2-yl]-6,7,8,9-tetrahydro-5H-pyrimido[4,5-d]azepine-2,4-diamine trifluoroacetic acid salt] | 670
CC(C)c1nc2c(c(Nc3ccc(S(=O)(=O)N(C)C)cc3)n1)CCN(c1ncccc1C(F)(F)F)CC2 [Example 154, N,N-Dimethyl-4-({2-(1-methylethyl)-7-[3-(trifluoromethyl)pyridin-2-yl]-6,7,8,9-tetrahydro-5H-pyrimido[4,5-d]azepin-4-yl}amino)benzenesulfonamide] | 1140
FC(F)(F)c1ccc(Nc2nc(-c3ccoc3)nc3c2CCN(c2ncccc2C(F)(F)F)CC3)cc1 [Example 146, 2-Furan-3-yl-N-[4-(trifluoromethyl)phenyl]-7-[3-(trifluoromethyl)pyridin-2-yl]-6,7,8,9-tetrahydro-5H-pyrimido[4,5-d]azepin-4-amine] | 720
CC(C)c1nc2c(c(Nc3ccc(C(C)(C)C)c(N)c3)n1)CCN(c1ncccc1C(F)(F)F)CC2 [Example 199, 4-(1,1-Dimethylethyl)-N1-{2-(1-methylethyl)-7-[3-(trifluoromethyl)pyridin-2-yl]-6,7,8,9-tetrahydro-5H-pyrimido[4,5-d]azepin-4-yl}benzene-1,3-diamine] | 1360
CN(Cc1ccco1)c1nc2c(c(Nc3ccc(C(F)(F)F)cc3)n1)CCN(c1ncccc1C(F)(F)F)CC2 [Example 216, N^2-(Furan-2-ylmethyl)-N^2-methyl-N^4-[4-(trifluoromethyl)phenyl]-7-[3-(trifluoromethyl)pyridin-2-yl]-6,7,8,9-tetrahydro-5H-pyrimido[4,5-d]azepine-2,4-diamine trifluoroacetic acid salt] | 50
CSc1nc2c(c(Nc3ccc(C(F)(F)F)cn3)n1)CCN(c1ncccc1C(F)(F)F)CC2 [Example 74B, [2-Methylsulfanyl-7-(3-trifluoromethyl-pyridin-2-yl)-6,7,8,9-tetrahydro-5H-pyrimido[4,5-d]azepin-4-yl]-(5-trifluoromethyl-pyridin-2-yl)-amine trifluoroacetic acid salt] | 3900
CN(C)S(=O)(=O)c1ccc(Nc2nc(N3CCOCC3)nc3c2CCN(c2ncccc2C(F)(F)F)CC3)cc1 [Example 379, N,N-Dimethyl-4-({2-morpholin-4-yl-7-[3-(trifluoromethyl)pyridin-2-yl]-6,7,8,9-tetrahydro-5H-pyrimido[4,5-d]azepin-4-yl}amino)benzenesulfonamide] | 70
CC(O)CSc1nc2c(c(Nc3ccc(S(=O)(=O)C(F)(F)F)cc3)n1)CCN(c1ncccc1C(F)(F)F)CC2 (stereo not shown) [Example 362, 1-({7-[3-(Trifluoromethyl)pyridin-2-yl]-4-({4-[(trifluoromethyl)sulfonyl]phenyl}amino)-6,7,8,9-tetrahydro-5H-pyrimido[4,5-d]azepin-2-yl}sulfanyl)propan-2-ol] | 190
CCS(=O)(=O)c1cccnc1N1CCc2ncnc(Nc3ccc(C(F)(F)F)cc3)c2CC1 [Example 301, 7-[3-(Ethylsulfonyl)pyridin-2-yl]-N-[4-(trifluoromethyl)phenyl]-6,7,8,9-tetrahydro-5H-pyrimido[4,5-d]azepin-4-amine] | 8970
CC(C)(C)c1ccc(Nc2nc(C3CC3)nc3c2CCN(c2ncccc2C(F)(F)F)CC3)cc1 [Example 3, (4-tert-Butyl-phenyl)-[2-cyclopropyl-7-(3-trifluoromethyl-pyridin-2-yl)-6,7,8,9-tetrahydro-5H-pyrimido[4,5-d]azepin-4-yl]-amine] | 95
FC(F)(F)c1ccc(Nc2nc(N3CCC3)nc3c2CCN(c2ncccc2C(F)(F)F)CC3)cc1Cl [Example 231, 2-Azetidin-1-yl-N-[3-chloro-4-(trifluoromethyl)phenyl]-7-[3-(trifluoromethyl)pyridin-2-yl]-6,7,8,9-tetrahydro-5H-pyrimido[4,5-d]azepin-4-amine trifluoroacetic acid salt] | 100
COCc1nc2c(c(Nc3ccc(C(F)(F)F)c(Cl)c3)n1)CCN(c1ncccc1C(F)(F)F)CC2 [Example 80B, (3-Chloro-4-trifluoromethyl-phenyl)-[2-methoxymethyl-7-(3-trifluoromethyl-pyridin-2-yl)-6,7,8,9-tetrahydro-5H-pyrimido[4,5-d]azepin-4-yl]-amine trifluoroacetic acid salt] | 130
CN1CCC(C)(C)c2ccc(Nc3nc(SC4CCCCC4)nc4c3CCN(c3ncccc3C(F)(F)F)CC4)cc21 [Example 371, 2-(Cyclohexylsulfanyl)-7-[3-(trifluoromethyl)pyridin-2-yl]-N-(1,4,4-trimethyl-1,2,3,4-tetrahydroquinolin-7-yl)-6,7,8,9-tetrahydro-5H-pyrimido[4,5-d]azepin-4-amine] | > 6670
CC(C)c1nc2c(c(Nc3ccc(C(C)O)cc3)n1)CCN(c1ncccc1C(F)(F)F)CC2 (stereo not shown) [Example 182, 1-[4-({2-(1-Methylethyl)-7-[3-(trifluoromethyl)pyridin-2-yl]-6,7,8,9-tetrahydro-5H-pyrimido[4,5-d]azepin-4-yl}amino)phenyl]ethanol] | 790
N#Cc1cccnc1N1CCc2ncnc(Nc3ccc(C(F)(F)F)cc3)c2CC1 [Example 293, 2-(4-{[4-(Trifluoromethyl)phenyl]amino}-5,6,8,9-tetrahydro-7H-pyrimido[4,5-d]azepin-7-yl)pyridine-3-carbonitrile] | 3490
CC(C)(C)c1ccc(Nc2nc(-c3ccncc3)nc3c2CCN(c2ncccc2C(F)(F)F)CC3)cc1 [Example 168, N-[4-(1,1-Dimethylethyl)phenyl]-2-pyridin-4-yl-7-[3-(trifluoromethyl)pyridin-2-yl]-6,7,8,9-tetrahydro-5H-pyrimido[4,5-d]azepin-4-amine trifluoroacetic acid salt] | 30
FC(F)(F)c1ccc(Nc2nc(N3CCOCC3)nc3c2CCN(c2ncccc2C(F)(F)F)CC3)cc1 [Example 40, [2-Morpholin-4-yl-7-(3-trifluoromethyl-pyridin-2-yl)-6,7,8,9-tetrahydro-5H-pyrimido[4,5-d]azepin-4-yl]-(4-trifluoromethyl-phenyl)-amine] | 56
CC(C)c1nc2c(c(Nc3ccc(C(F)(F)F)cn3)n1)CCN(c1ncccc1C(F)(F)F)CC2 [Example 20, [2-Isopropyl-7-(3-trifluoromethyl-pyridin-2-yl)-6,7,8,9-tetrahydro-5H-pyrimido[4,5-d]azepin-4-yl]-(5-trifluoromethyl-pyridin-2-yl)-amine] | 32
Cc1cc(C(F)(F)F)ccc1Nc1nc(SC2CCOC2C)nc2c1CCN(c1ncccc1C(F)(F)F)CC2 (stereo not drawn) [Example 369, 2,5-Anhydro-1,4-dideoxy-3-S-(4-{[2-methyl-4-(trifluoromethyl)phenyl]amino}-7-[3-(trifluoromethyl)pyridin-2-yl]-6,7,8,9-tetrahydro-5H-pyrimido[4,5-d]azepin-2-yl)-3-thiopentitol] | 10
Cc1nc2c(c(Nc3ccc(C(C)(C)C)cc3)n1)CCN(c1ncccc1C(F)(F)F)CC2 [Example 15, (4-tert-Butyl-phenyl)-[2-methyl-7-(3-trifluoromethyl-pyridin-2-yl)-6,7,8,9-tetrahydro-5H-pyrimido[4,5-d]azepin-4-yl]-amine] | 46
COC(=O)c1cnc(N2CCc3nc(SC)nc(Nc4ccc(C(F)(F)F)cc4)c3CC2)c(Cl)c1 [Example 303, Methyl 5-chloro-6-[2-(methylsulfanyl)-4-{[4-(trifluoromethyl)phenyl]amino}-5,6,8,9-tetrahydro-7H-pyrimido[4,5-d]azepin-7-yl]pyridine-3-carboxylate] | > 6670
FC(F)(F)c1ccc(Nc2nc(N3CCC3)nc3c2CCN(c2ncccc2C(F)(F)F)CC3)cn1 [Example 217, 2-Azetidin-1-yl-7-[3-(trifluoromethyl)pyridin-2-yl]-N-[6-(trifluoromethyl)pyridin-3-yl]-6,7,8,9-tetrahydro-5H-pyrimido[4,5-d]azepin-4-amine] | 390
CN(C)c1nc2c(c(Nc3ccc(Cl)c(Cl)c3)n1)CCN(c1ncccc1C(F)(F)F)CC2 [Example 63B, N^4-(3,4-Dichloro-phenyl)-N^2,N^2-dimethyl-7-(3-trifluoromethyl-pyridin-2-yl)-6,7,8,9-tetrahydro-5H-pyrimido[4,5-d]azepine-2,4-diamine trifluoroacetic acid salt] | 2500
CC(C)c1nc2c(c(Nc3ccc(C(F)(F)F)cc3)n1)CCN(c1ccccc1N)CC2 [Example 84, [7-(2-Amino-phenyl)-2-isopropyl-6,7,8,9-tetrahydro-5H-pyrimido[4,5-d]azepin-4-yl]-(4-trifluoromethyl-phenyl)-amine] | > 20000
FC(F)(F)c1ccc(Nc2nc(N3CCN(Cc4ccccc4)CC3)nc3c2CCN(c2ncccc2C(F)(F)F)CC3)cc1 [Example 102, [2-(4-Benzyl-piperazin-1-yl)-7-(3-trifluoromethyl-pyridin-2-yl)-6,7,8,9-tetrahydro-5H-pyrimido[4,5-d]azepin-4-yl]-(4-trifluoromethyl-phenyl)-amine] | 170
CC(C)N1CCC(Oc2nc3c(c(Nc4ccc(C(F)(F)F)cc4)n2)CCN(c2ncccc2C(F)(F)F)CC3)C1 (stereo not shown) [Example 315, 2-{[1-(1-Methylethyl)pyrrolidin-3-yl]oxy}-N-[4-(trifluoromethyl)phenyl]-7-[3-(trifluoromethyl)pyridin-2-yl]-6,7,8,9-tetrahydro-5H-pyrimido[4,5-d]azepin-4-amine] | 5520
CN(C)c1nc2c(c(NCc3ccc(C(F)(F)F)nc3)n1)CCN(c1ncccc1C(F)(F)F)CC2 [Example 218, N^2,N^2-Dimethyl-7-[3-(trifluoromethyl)pyridin-2-yl]-N^4-{[6-(trifluoromethyl)pyridin-3-yl]methyl}-6,7,8,9-tetrahydro-5H-pyrimido[4,5-d]azepine-2,4-diamine trifluoroacetic acid salt] | 120
CC1OCCC1Sc1nc2c(c(Nc3ccc4c(c3)N(C)CCC4(C)C)n1)CCN(c1ncccc1C(F)(F)F)CC2 (stereo not drawn) [Example 374, 2,5-Anhydro-1,4-dideoxy-3-thio-3-S-{7-[3-(trifluoromethyl)pyridin-2-yl]-4-[(1,4,4-trimethyl-1,2,3,4-tetrahydroquinolin-7-yl)amino]-6,7,8,9-tetrahydro-5H-pyrimido[4,5-d]azepin-2-yl}pentitol] | 4
